Assays:
male Sprague Dawley rats = experiment: Pro-convulsant testing, acute treatment, PTZ infusion; assay type: in vivo, rat; conditions: 10.0 mg/kg IP 30 min prior to PTZ infusion; post hoc tests
Description: Sixty naive male Sprague Dawley rats (225-265 g) housed in groups of four with food and water freely available, served as subjects. The rats were assigned to one of six groups and given: Vehicle or 0.5, 1.0, 2.0, 4.0 mg/kg of […] or 10.0 mg/kg of the non-selective receptor inverse agonist, CGS 8216, a known pro-convulsant agent. Vehicle, FG 8094 or CGS 8216 was administered IP 30 min prior to an infusion of the convulsant, pentylenetetrazole (PTZ, 40 mg/ml). PTZ was infused into the tail vein of the rat at the rate of 1.0 ml/min. The latency to clonic and tonic seizure were recorded and the threshold to each was calculated using the equation: Threshold dose=infusion rate (ml/s)×PTZ (mg/ml)×(1000/rats weight)×latency(s).

[1] = test system: α1 and α5-containing receptors; conditions: cited from earlier work
α3β3γ2 = target: T1, α3β3γ2 (Homo sapiens, UniProt P18507+P34903); experiment: Radioligand binding, membranes of stably transfected cells; conditions: [3H]Ro 15-1788 at twice Kd; mean±SEM, 3-6 determinations; read-out: Ki α3β3γ2
T1 construct: expressed in transfected cells

α5β3γ2 = target: T2, α5β3γ2 (Homo sapiens, UniProt P18507+P31644); experiment: as above; conditions: [3H]Ro 15-1788 at twice Kd; mean±SEM, 3-6 determinations; read-out: Ki α5β3γ2
T2 construct: expressed in transfected cells

α6β3γ2 = target: T3, α6β3γ2 (Homo sapiens, UniProt P18507+Q16445); experiment: as above; conditions: [3H]Ro 15-4513 as radioligand; mean±SEM, 3-6 determinations; read-out: Ki α6β3γ2
T3 construct: expressed in transfected cells

[2] = in vivo; cited from earlier work

T2 sequence (P31644 32-462): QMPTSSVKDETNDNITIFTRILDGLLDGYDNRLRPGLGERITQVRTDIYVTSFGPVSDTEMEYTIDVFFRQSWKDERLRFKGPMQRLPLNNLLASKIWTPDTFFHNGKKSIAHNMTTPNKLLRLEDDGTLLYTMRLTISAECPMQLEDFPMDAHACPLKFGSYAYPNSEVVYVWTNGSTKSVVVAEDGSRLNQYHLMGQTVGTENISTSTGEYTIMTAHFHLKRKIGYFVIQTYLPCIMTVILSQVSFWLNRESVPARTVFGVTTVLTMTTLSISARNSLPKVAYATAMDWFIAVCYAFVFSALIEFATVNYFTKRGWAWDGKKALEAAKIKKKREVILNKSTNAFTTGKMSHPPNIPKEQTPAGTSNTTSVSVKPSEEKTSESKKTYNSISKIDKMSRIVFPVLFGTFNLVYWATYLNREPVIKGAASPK
T2 sequence (P28472 26-473 partner): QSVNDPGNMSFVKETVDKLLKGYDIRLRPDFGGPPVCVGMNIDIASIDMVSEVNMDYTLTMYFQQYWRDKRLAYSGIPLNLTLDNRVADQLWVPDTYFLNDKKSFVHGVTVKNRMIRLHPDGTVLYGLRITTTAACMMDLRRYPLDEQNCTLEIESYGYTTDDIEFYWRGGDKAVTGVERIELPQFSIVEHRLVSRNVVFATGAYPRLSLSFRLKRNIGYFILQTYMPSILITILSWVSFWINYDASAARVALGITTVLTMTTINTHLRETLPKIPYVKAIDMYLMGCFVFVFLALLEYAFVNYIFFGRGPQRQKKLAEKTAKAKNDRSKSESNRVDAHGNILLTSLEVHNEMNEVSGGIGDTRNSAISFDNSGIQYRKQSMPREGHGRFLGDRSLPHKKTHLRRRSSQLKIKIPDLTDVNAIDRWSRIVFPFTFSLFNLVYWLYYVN
T2 sequence (P18507 40-467 isoform P18507-1 limits assumed): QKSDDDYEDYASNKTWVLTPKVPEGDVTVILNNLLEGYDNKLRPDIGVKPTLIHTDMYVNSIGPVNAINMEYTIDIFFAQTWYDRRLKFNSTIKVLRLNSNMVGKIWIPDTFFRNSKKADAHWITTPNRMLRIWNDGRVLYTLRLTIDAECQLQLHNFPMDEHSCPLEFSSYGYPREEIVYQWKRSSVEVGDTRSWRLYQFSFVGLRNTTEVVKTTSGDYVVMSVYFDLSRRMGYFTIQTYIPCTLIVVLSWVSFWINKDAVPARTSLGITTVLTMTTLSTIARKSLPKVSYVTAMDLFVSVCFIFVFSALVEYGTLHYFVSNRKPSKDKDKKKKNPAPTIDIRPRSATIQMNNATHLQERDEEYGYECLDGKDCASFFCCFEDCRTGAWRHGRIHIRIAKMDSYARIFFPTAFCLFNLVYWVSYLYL
T3 sequence (Q16445 20-453): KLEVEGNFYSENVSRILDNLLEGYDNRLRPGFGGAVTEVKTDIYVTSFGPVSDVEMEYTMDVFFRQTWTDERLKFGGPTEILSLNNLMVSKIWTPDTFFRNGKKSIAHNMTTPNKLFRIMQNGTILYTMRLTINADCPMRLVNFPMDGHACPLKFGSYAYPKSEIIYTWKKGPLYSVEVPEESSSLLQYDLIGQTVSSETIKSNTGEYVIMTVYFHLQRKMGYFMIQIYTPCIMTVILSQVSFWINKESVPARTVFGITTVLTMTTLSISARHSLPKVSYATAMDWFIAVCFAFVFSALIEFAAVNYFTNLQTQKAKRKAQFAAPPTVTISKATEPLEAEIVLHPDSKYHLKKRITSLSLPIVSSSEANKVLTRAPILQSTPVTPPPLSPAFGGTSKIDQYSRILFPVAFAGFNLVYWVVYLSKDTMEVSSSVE
T3 sequence (P28472 26-473 partner): as the sequence (P28472 26-473 partner) above
T3 sequence (P18507 40-467 isoform P18507-1 limits assumed): as the sequence (P18507 40-467 isoform P18507-1 limits assumed) above
T1 sequence (P34903 29-492): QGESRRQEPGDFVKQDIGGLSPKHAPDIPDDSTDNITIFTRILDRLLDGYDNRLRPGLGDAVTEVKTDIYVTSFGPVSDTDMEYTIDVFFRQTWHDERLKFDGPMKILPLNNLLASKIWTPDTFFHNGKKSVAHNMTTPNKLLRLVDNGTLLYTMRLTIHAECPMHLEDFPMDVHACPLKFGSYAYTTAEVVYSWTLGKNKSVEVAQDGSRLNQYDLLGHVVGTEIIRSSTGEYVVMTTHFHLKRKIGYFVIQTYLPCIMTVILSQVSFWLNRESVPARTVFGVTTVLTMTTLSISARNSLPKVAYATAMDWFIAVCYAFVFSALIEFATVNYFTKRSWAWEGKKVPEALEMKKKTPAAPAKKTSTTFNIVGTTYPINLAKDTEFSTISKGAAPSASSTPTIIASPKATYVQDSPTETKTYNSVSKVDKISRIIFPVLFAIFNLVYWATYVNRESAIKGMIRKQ
T1 sequence (P28472 26-473 partner): as the sequence (P28472 26-473 partner) above
T1 sequence (P18507 40-467 isoform P18507-1 limits assumed): as the sequence (P18507 40-467 isoform P18507-1 limits assumed) above

O=C1C2C=Nc3ccccc3C2=NN1c1ccccc1 (stereo not shown) [CGS 8216, reference compound]
threshold dose of PTZ to tonic seizures (male Sprague Dawley rats): significantly lowered the threshold doses to tonic seizures

Cc1nnc2ccc(-c3cccc(C(F)(F)F)c3)nn12 [CL 218,872]
relative affinity α1 versus α5-containing receptors [1]: greater anfinity for α1 than for α5-containing receptors

CCOC(=O)c1ncn2c1CN(C)C(=O)c1cc(N=[N+]=[N-])ccc1-2 [Ro 15-4513, reference compound]
Ki (α3β3γ2): 1.28 ± 0.06 nM | Ki (α5β3γ2): 0.24 ± 0.05 nM | Ki (α6β3γ2): 6.5 ± 0.6 nM

Cc1ccc(-c2nc3ccc(C)cn3c2CC(=O)N(C)C)cc1 [zolpidem]
relative affinity α1 versus α5-containing receptors [1]: greater anfinity for α1 than for α5-containing receptors

COC(=O)c1cc2c(cn1)[nH]c1ccccc12 [β-CCM]
spatial learning in the Morris watermaze [2]: enhanced spatial learning
